Reference: patent US8178506B2, “Oligomeric compounds and compositions for use in modulation of small non-coding RNAs” (Regulus Therapeutics Inc., priority 2003, dated 2012)
In the oligonucleotide strings, read from the 5' end, every base follows the letter of its sugar. An asterisk marks phosphorothioate; unmarked linkages are phosphodiester. Other units and linkages are bracketed, terminal groups are in braces. A string of capitals states the bases alone. e = 2'-O-(2-methoxyethyl) (MOE); [5mC] = 5-methylcytosine

How the values were obtained:
Type in all cases: cell-based, human
adipocytes = assay: Triglyceride accumulation assay in adipocytes
aP2 = aP2 mRNA expression in adipocytes (real-time PCR); details: for aP2 mRNA: Table 75
HSL = HSL mRNA expression in adipocytes (real-time PCR)
Glut4 = Glut4 mRNA expression in adipocytes (real-time PCR)
PPARγ = PPARγ mRNA expression in adipocytes (real-time PCR)
[1] = Table 17, differentiating adipocytes, control = treatment with ISIS 342673
[2] = differentiating adipocytes transfected with oligomeric compound, Table 75
[3] = differentiating adipocytes transfected with oligomeric compound

Row | Substance | TG (triglyceride accumulation) (adipocytes; [1]) | TG (triglyceride accumulation) (adipocytes; [2]) | AP2 mRNA (aP2; [1]) | aP2 mRNA (aP2; [3]) | HSL mRNA (HSL; [1]) | HSL mRNA (HSL; [2]) | GLUT4 mRNA (Glut4; [1]) | GLUT4 mRNA (Glut4; [2]) | PPAR gamma mRNA (PPARγ; [1]) | PPAR gamma mRNA (PPARγ; [2]) | TG (triglyceride accumulation) (adipocytes; [3]) | AP2 mRNA (aP2; [3]) | HSL mRNA (HSL; [3]) | GLUT4 mRNA (Glut4; [3]) | PPAR gamma mRNA (PPARγ; [3])
1 | 328120 (antisense eA*eA*eG*eA*eA*eG*eG*eA*eA*eG*eG*eA*eG*eG*eG*eA*eA*eA*eG*e[5mC]*eA) [compound 328120] | 82.7 percentage of control | 80 percentage of untreated control (UTC) | 81.0 percentage of control | 80 percentage of untreated control (UTC) | 77.7 percentage of control | 67 percentage of untreated control (UTC) | 94.8 percentage of control | 68 percentage of untreated control (UTC) | 70.5 percentage of control | 73 percentage of untreated control (UTC) | – | – | – | – | –
2 | 328121 (antisense eA*eT*eG*eA*e[5mC]*eT*eA*e[5mC]*eA*eA*eG*eT*eT*eT*eA*eT*eG*eG*e[5mC]*e[5mC]*eA) [compound 328121] | 134.8 percentage of control | 119 percentage of untreated control (UTC) | 127.0 percentage of control | 119 percentage of untreated control (UTC) | 126.0 percentage of control | 110 percentage of untreated control (UTC) | 140.8 percentage of control | 115 percentage of untreated control (UTC) | 103.6 percentage of control | 105 percentage of untreated control (UTC) | – | – | – | – | –
3 | 328122 (antisense e[5mC]*eA*eA*eA*eA*e[5mC]*eA*eT*eA*eA*eA*eA*eA*eT*e[5mC]*e[5mC]*eT*eT*eG*e[5mC]*eA) [compound 328122] | 78.9 percentage of control | 97 percentage of untreated control (UTC) | 79.3 percentage of control | 99 percentage of untreated control (UTC) | 72.7 percentage of control | 89 percentage of untreated control (UTC) | 85.9 percentage of control | 91 percentage of untreated control (UTC) | 77.8 percentage of control | 103 percentage of untreated control (UTC) | – | – | – | – | –
4 | 328124 (antisense eA*eG*e[5mC]*eA*eG*eG*eT*eG*eA*eA*eG*eG*e[5mC]*eA*e[5mC]*e[5mC]*eT*eG*eG*e[5mC]*eT) [compound 328124] | 99.1 percentage of control | 108 percentage of untreated control (UTC) | 101.8 percentage of control | 118 percentage of untreated control (UTC) | 103.6 percentage of control | 96 percentage of untreated control (UTC) | 122.7 percentage of control | 105 percentage of untreated control (UTC) | 90.4 percentage of control | 92 percentage of untreated control (UTC) | – | – | – | – | –
5 | 328126 (antisense e[5mC]*e[5mC]*eA*eA*eG*eT*eG*eT*eT*eA*eG*eA*eG*e[5mC]*eA*eA*eG*eA*eT*e[5mC]*eA) [compound 328126] | 98.9 percentage of control | 108 percentage of untreated control (UTC) | 90.9 percentage of control | 120 percentage of untreated control (UTC) | 83.2 percentage of control | 135 percentage of untreated control (UTC) | 100.7 percentage of control | 107 percentage of untreated control (UTC) | 75.0 percentage of control | 98 percentage of untreated control (UTC) | – | – | – | – | –
6 | 328127 (antisense eA*eA*e[5mC]*eG*eA*eT*eA*eA*eA*eA*e[5mC]*eA*eT*eA*e[5mC]*eT*eT*eG*eT*e[5mC]*eA) [compound 328127] | 74.5 percentage of control | 81 percentage of untreated control (UTC) | 86.9 percentage of control | 95 percentage of untreated control (UTC) | 89.7 percentage of control | 93 percentage of untreated control (UTC) | 80.8 percentage of control | 75 percentage of untreated control (UTC) | 77.6 percentage of control | 85 percentage of untreated control (UTC) | – | – | – | – | –
7 | 328128 (antisense eA*eG*eT*eA*eA*e[5mC]*eT*eT*e[5mC]*eT*eT*eG*e[5mC]*eA*eG*eT*eT*eG*eG*eA) [compound 328128] | 98.7 percentage of control | 61 percentage of untreated control (UTC) | 100.7 percentage of control | 90 percentage of untreated control (UTC) | 94.1 percentage of control | 72 percentage of untreated control (UTC) | 101.9 percentage of control | 73 percentage of untreated control (UTC) | 84.0 percentage of control | 86 percentage of untreated control (UTC) | – | – | – | – | –
8 | 328130 (antisense eA*e[5mC]*e[5mC]*eT*e[5mC]*eA*eG*eG*eT*eG*eG*eT*eT*eG*eA*eA*eG*eG*eA*eG*eA) [compound 328130] | 122.4 percentage of control | 91 percentage of untreated control (UTC) | 86.6 percentage of control | 72 percentage of untreated control (UTC) | 76.5 percentage of control | 64 percentage of untreated control (UTC) | 83.8 percentage of control | 55 percentage of untreated control (UTC) | 99.4 percentage of control | 77 percentage of untreated control (UTC) | – | – | – | – | –
9 | 328131 (antisense eA*eT*eA*eT*eG*eT*e[5mC]*eA*eT*eA*eT*e[5mC]*eA*eA*eA*e[5mC]*eT*e[5mC]*e[5mC]*eT*eA) [compound 328131] | 89.1 percentage of control | 74 percentage of untreated control (UTC) | 95.4 percentage of control | 63 percentage of untreated control (UTC) | 81.8 percentage of control | 51 percentage of untreated control (UTC) | 103.6 percentage of control | 56 percentage of untreated control (UTC) | 88.2 percentage of control | 55 percentage of untreated control (UTC) | – | – | – | – | –
10 | 328132 (antisense eG*eT*eG*eA*eG*eA*eG*eT*eA*eG*e[5mC]*eA*eT*eG*eT*eT*eT*eG*eT*e[5mC]*eT) [compound 328132] | 114.1 percentage of control | – | 90.2 percentage of control | – | 73.7 percentage of control | – | 72.1 percentage of control | – | 90.0 percentage of control | – | 120 percentage of untreated control (UTC) | 81 percentage of untreated control (UTC) | 89 percentage of untreated control (UTC) | 67 percentage of untreated control (UTC) | 94 percentage of untreated control (UTC)
11 | 328134 (eA*eA*eT*eT*eG*eG*eA*e[5mC]*eA*eA*eA*eG*eT*eG*e[5mC]*e[5mC]*eT*eT*eT*e[5mC]*eA; anti-miR) [compound 328134] | 85.7 percentage of control | 107 percentage of untreated control (UTC) | 80.1 percentage of control | 97 percentage of untreated control (UTC) | 74.7 percentage of control | 109 percentage of untreated control (UTC) | 88.3 percentage of control | 109 percentage of untreated control (UTC) | 78.4 percentage of control | 86 percentage of untreated control (UTC) | – | – | – | – | –
12 | 328135 (eA*e[5mC]*e[5mC]*eG*eA*eA*e[5mC]*eA*eA*eA*eG*eT*e[5mC]*eT*eG*eA*e[5mC]*eA*eG*eG*eA; anti-miR) [compound 328135] | 63.6 percentage of control | 29 percentage of untreated control (UTC) | 80.6 percentage of control | 34 percentage of untreated control (UTC) | 76.7 percentage of control | 20 percentage of untreated control (UTC) | 90.3 percentage of control | 19 percentage of untreated control (UTC) | 70.0 percentage of control | 33 percentage of untreated control (UTC) | – | – | – | – | –
13 | 328139 (eT*eA*e[5mC]*eT*eT*eT*eT*e[5mC]*eA*eT*eT*e[5mC]*e[5mC]*e[5mC]*e[5mC]*eT*e[5mC]*eA*e[5mC]*e[5mC]*eA; anti-miR) [compound 328139] | 89.1 percentage of control | 90 percentage of untreated control (UTC) | 98.3 percentage of control | 100 percentage of untreated control (UTC) | 92.6 percentage of control | 116 percentage of untreated control (UTC) | 106.3 percentage of control | 85 percentage of untreated control (UTC) | 115.0 percentage of control | 91 percentage of untreated control (UTC) | – | – | – | – | –
